Consider two substances from EP0367447A1, “Human epithelial transforming growth factor” (SMITHKLINE BEECHAM CORPORATION, priority 1988, dated 1990).

The assay has as its system SW13 cells. Briefly: growth of SW13 cells in soft agar (colony formation, Halper et al. 1983, modified). The assay is classed as cell-based, human. Conditions: qualitative; whether the substance stimulates or mimics the growth response. As to the method: By the term 'anchorage independent growth of SW13 cells in soft agar in an autocrine fashion' is meant that the anchorage independent growth of the SW13 cells in soft agar is stimulated by a growth factor produced by the SW13 cells. Such 'anchorage independent growth of SW13 cells in soft agar is measured by the method described by Halper et al., Cancer Research, 43, 1972-1979 (1983). Preferably such method is modified so that the base and upper layers contain 0.5% and 0.3% agarose, respectively in DMEM, 10% fetal bovine serum, and 5000 cells are plated per 3 cm dish.
h-TGFe activity was measured using growth of SW13 cells in soft agar as described by Halper et al., Cancer Research, 43, 1972-1979 (1983), except that the base and upper layers contained 0.5% and 0.3% agarose, respectively in DMEM, 10% fetal bovine serum, and 5000 cells were plated per 3 cm dish.
Human milk was delipidated by ether extraction and acidified with TFA (0.5% final concentration). The acidified material was filtered through a 0.45 µm membrane and concentrated 5-fold using an Amicon YM5 membrane. The concentrate was dialyzed against 0.05% TFA, lyophilized, reconstituted at 10 times the original concentration and bioassayed on SW13 cells.
Samples of colon carcinoma tissue from patients along with two specimens of normal adjacent colon were obtained at surgery and snap frozen in liquid nitrogen. […]

Ends that are not written are not given here.

Consider “gastrin: Synthetic human gastrin obtained from Sigma (QGPWLEEEEEAYGWMDF; ends and bridges not checked; UniProt P01350 76-92, looked up)”, for which the “colony formation by SW13 cells in the soft agar assay” value is listed as “not mimicked”.

As to bombesin, the “colony formation by SW13 cells in the soft agar assay” value is given as “not mimicked”.
